According to patent US10800778B2 (Entasis Therapeutics Limited, priority 2016, dated 2020):
Where a name gives a salt, the structure may show the parent alone.

Assays:
[1] = Stability in pH 7.4 buffer (no enzyme); type: physicochemical; details: HEPES buffer without enzyme, read-out: T1/2 pH 7.4 Buffer
Summary of the method: (§1)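 Esters at 10 μM incubated at 37 °C with 0.8 mg/mL S9 (human intestinal without PMSF, rat liver or rat intestinal) or no enzyme, in 100 mM HEPES pH 7.4; sampled 0–60 min. LC-MS/MS tracked ester and hydrolysed active; first-order T1/2 from ester disappearance.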

[2] = Stability/conversion of esters in rat intestinal S9; type: in vitro ADME; details: intestinal S9, pH 7.4, read-out: T1/2 Rat Intestinal S9
Summary of the method: as §1

[3] = Stability/conversion of esters in rat liver S9; type: in vitro ADME; details: liver S9, pH 7.4, read-out: T1/2 Rat Liver S9
Summary of the method: as §1

[4] = Stability/conversion of esters in human intestinal S9; type: in vitro ADME; details: intestinal S9 (without PMSF), pH 7.4, read-out: T1/2 Human Intestinal S9
Summary of the method: as §1

[5] = Stability/conversion of esters in human liver S9; type: in vitro ADME; details: liver S9, pH 7.4, read-out: T1/2 Human Liver S9
Summary of the method: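 Ester test compounds (10 μM) were incubated at 37° C with human liver S9 at 0.8 mg/mL in 100 mM HEPES buffer, pH 7.4. Aliquots taken from 0 to 60 min were quenched in acetonitrile containing carbutamide internal standard, centrifuged, and analyzed by LC-MS/MS MRM; first-order half-lives came from loss of the parent ester.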

[6] = Rat PK, intravenous and oral; type: in vivo, Sprague-Dawley rats; details: for AUC: Sprague-Dawley, plasma, rat
Experimental: Intravenous rat pharmacokinetics of exemplar compounds were determined in jugular vein cannulated Sprague-Dawley rats (n=3) (Harlan Laboratories, Indianapolis, Ind.) at a dose of 10 mg/kg. Compounds were dissolved and administered intravenously in 0.9% saline, pH 6.5 at a dose volume of 2 mL/kg. […] Oral pharmacokinetic studies were conducted with exemplar compounds at 10 mg/kg equivalents of carboxylic acids. Doses were dissolved and administered orally in 25:75 PEG400: water for injection, pH 4.5 at a dose volume of 10 mL/kg. […] Plasma samples were stored at −80° C. prior to bioanalysis.
Plasma samples were thawed on ice prior to processing. Samples (30 μL) were diluted and proteins precipitated with 180 μL of acetonitrile containing 0.1% formic acid and 250 ng/mL of carbutamide (N1-(butylcarbanoyl)-sulfanilamide, Sigma-Aldrich Catalog # S385433) as an internal standard. Samples were vortexed for 30 seconds, centrifuged at 3400 g for 10 minutes and the supernatant transferred to injection vials.
LC/MS/MS analysis was completed on an AB Sciex QTrap 6500 mass spectrometer in positive ionization mode, coupled to a Schimadzu Nexera LC system. A Waters Atlantis T3 (3 μm, 3.0×50 mm) column was used for chromatographic separation. Injection volume was […] The mobile phase consisted 0.1% formic acid in water (A) and 0.1% formic acid in acetonitrile (B), with a gradient of 2-98% B:A over two minutes.
Plasma concentration vs. time profiles following intravenous (IV) administration and oral (PO) administration of exemplar compounds were analyzed by non-compartment analysis using WinNonLin 6.4.

[7] = target: TEM-1 (Class A beta-lactamase) (Escherichia coli, UniProt P62593); assay: Inhibition of beta-lactamase enzymes (nitrocefin hydrolysis), TEM-1; type: biochemical; details: read-out: Class A TEM-1 60 min IC50, nitrocefin 100 μM
Summary of the method: (§2)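 Nitrocefin (100 μM) hydrolysis followed at 490 nm for 1 h in 0.1 M sodium phosphate pH 7.0, 10 mM NaHCO3, 0.005% Triton X-100, with 3-fold inhibitor dilutions from 100 μM to 62.7 pM. Progress curves fitted globally to give kinact/Ki or Ki; percent inhibition from best-fit absorbance fitted with Hill equation.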

[8] = target: OXA-48 (Class D beta-lactamase) (Klebsiella pneumoniae, UniProt Q6XEC0); assay: Inhibition of beta-lactamase enzymes (nitrocefin hydrolysis), OXA-48; type: biochemical; details: read-out: Class D OXA-48 60 min IC50, nitrocefin 100 μM
Summary of the method: as §2

[9] = system: C. freundii AmpC, TEM-1, CMY65; assay: MIC, CLSI broth microdilution, beta-lactam with or without BLI; type: cell-based; details: BLI at fixed 4 μg/ml
Experimental: (§3) The minimal inhibitory concentration (MIC) values against each organism and drug combination were determined using the Clinical and Laboratory Standards Institute guidelines (CLSI) broth microdilution methodology (CLSI M07-A10). The recommended quality control (QC) bacterial strains E. coli ATCC 25922, E. coli ATCC 35218 and Klebsiella pneumoniae ATCC 700603 were incorporated into each test according to the CLSI guidelines to assure that there was no variation between test dates (CLSI M100-S25). The MICs of these QC strains were within QC range on all test occasions. Drug containing plates were made using the master plate method. A cefpodoxime solution was prepared to 20× concentration and 2-fold serial dilutions were made in cation adjusted Mueller-Hinton Broth. Equal volumes of 20× examplar compounds at a fixed concentration were added to the master plate. 10 uL was stamped into daughter plates using a Tecan EVO robot. Organism suspensions were adjusted to a 0.5 McFarland standard and further diluted to yield a final inoculum between 3×10^5 and 7×10^5 colony-forming units (CFU)/mL. Bacterial inocula were made in sterile, cation adjusted Mueller-Hinton Broth (Beckton Dickinson). An inoculum volume of 1.1× concentration of 90 uL was added to wells (using a Tecan EVO robot). All inoculated microdilution plates were incubated in ambient air at 35° C. for 18-24 hours.
(§4) Following the procedure from Example 103, MICs were determined for several beta-lactams in presence of a fixed concentration (4 μg/mL) of exemplar compounds (Table 3) against 3 Enterobacteriaceae strains.

E. coli WT (ATCC 25922) = assay: as above; type: cell-based; details: BLI at fixed 4 μg/ml
Experimental: as §3, §4

[10] = system: Klebsiella pneumoniae SHV-18, OXA-2, OKP-6 (ATCC 700603); assay: as above; type: cell-based; details: BLI at fixed 4 μg/ml; K. pneumoniae ATCC 700603
Experimental: as §3, §4

[11] = IV 10 mg/kg, analyte = compound administered
[12] = 10 mg/kg, PO, analyte = compound administered (sulfate-derived comparator)

OXA-48 (Class D beta-lactamase), sequence (Q6XEC0 whole entry, looked up, species assumed): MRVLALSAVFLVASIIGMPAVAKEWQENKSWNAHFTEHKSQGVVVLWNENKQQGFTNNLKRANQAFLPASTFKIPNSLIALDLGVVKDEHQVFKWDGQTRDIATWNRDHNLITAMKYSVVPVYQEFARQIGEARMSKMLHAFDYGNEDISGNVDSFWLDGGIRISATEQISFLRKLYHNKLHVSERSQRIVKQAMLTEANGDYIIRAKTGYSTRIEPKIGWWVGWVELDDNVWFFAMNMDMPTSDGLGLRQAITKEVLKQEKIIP
TEM-1 (Class A beta-lactamase), sequence (P62593 whole entry, looked up, species assumed): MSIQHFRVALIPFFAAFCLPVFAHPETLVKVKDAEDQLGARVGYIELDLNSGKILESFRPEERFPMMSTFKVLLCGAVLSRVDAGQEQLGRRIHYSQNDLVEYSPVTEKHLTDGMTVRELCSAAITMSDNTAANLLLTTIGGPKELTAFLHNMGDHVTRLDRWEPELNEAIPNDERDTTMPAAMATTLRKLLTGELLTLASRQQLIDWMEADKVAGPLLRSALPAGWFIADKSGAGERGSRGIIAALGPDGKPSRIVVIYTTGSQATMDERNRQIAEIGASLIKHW

SMILES	AUC [6, 12]	IC50 [7]	IC50 [8]	MIC of cefixime in presence of BLI [9]	MIC of cefuroxime in presence of BLI [9]	MIC of faropenem in presence of BLI [9]	MIC of tebipenem in presence of BLI [9]	MIC of cefixime in presence of BLI (E. coli WT (ATCC 25922))	MIC of cefuroxime in presence of BLI (E. coli WT (ATCC 25922))	MIC of faropenem in presence of BLI (E. coli WT (ATCC 25922))	MIC of tebipenem in presence of BLI (E. coli WT (ATCC 25922))	MIC of cefixime in presence of BLI [10]	MIC of faropenem in presence of BLI [10]	MIC of tebipenem in presence of BLI [10]	AUC [6, 11]	also measured
CC1=C[C@@H]2CN(C(=O)N2O[C@H](F)C(=O)OC(C)C)[C@@H]1C(N)=O [Example 12, propan-2-yl (2R)-{[(2S,5R)-2-carbamoyl-3-methyl-7-oxo-1,6-diazabicyclo[3.2.1]oct-3-en-6-yl]oxy}(fluoro)ethanoate]	–	–	–	–	–	–	–	–	–	–	–	–	–	–	–	half-life at 10 μM [1]: 3.93 h; half-life at 10 μM [2]: 3.88 h; half-life at 10 μM [3]: 0.233 h; half-life at 10 μM [4]: 2.2 h; half-life at 10 μM [5]: 0.267 h; Circulating concentrations of the ester in plasma ([6]; rat plasma, LC/MS/MS): Rapid hydrolysis precluded satisfactory analysis of circulating concentrations
CC1=C[C@@H]2CN(C(=O)N2O[C@@H](F)C(=O)O)[C@@H]1C(N)=O [Example 3, (2S)-{[(2S,5R)-2-carbamoyl-3-methyl-7-oxo-1,6-diazabicyclo[3.2.1]oct-3-en-6-yl]oxy}(fluoro)ethanoic acid lithium salt]	–	19 nM	15 nM	1 µg/mL	1 µg/mL	0.25 µg/mL	≤0.06 µg/mL	0.125 µg/mL	0.02 µg/mL	0.25 µg/mL	≤0.06 µg/mL	0.5 µg/mL	2 µg/mL	0.125 µg/mL	34.9 µM·h	–
CC1=C[C@@H]2CN(C(=O)N2O[C@H](F)C(=O)O)[C@@H]1C(N)=O [Example 4, (2R)-{[(2S,5R)-2-carbamoyl-3-methyl-7-oxo-1,6-diazabicyclo[3.2.1]oct-3-en-6-yl]oxy}(fluoro)ethanoic acid lithium salt]	–	1.35 nM	15 nM	≤0.06 µg/mL	0.02 µg/mL	≤0.06 µg/mL	≤0.06 µg/mL	≤0.06 µg/mL	0.02 µg/mL	≤0.06 µg/mL	≤0.06 µg/mL	≤0.06 µg/mL	1 µg/mL	≤0.06 µg/mL	19.1 µM·h	–
CC1=C[C@@H](C(N)=O)N2C[C@@H]1N(O[C@@H](F)C(=O)O)C2=O [Example 34, (2S)-2-(((2S,5R)-2-carbamoyl-4-methyl-7-oxo-1,6-diazabicyclo[3.2.1]oct-3-en-6-yl)oxy)-2-fluoroacetic acid lithium salt]	–	26 nM	19 nM	≤0.06 µg/mL	<0.03125 µg/mL	≤0.06 µg/mL	≤0.06 µg/mL	≤0.06 µg/mL	<0.03125 µg/mL	≤0.06 µg/mL	≤0.06 µg/mL	≤0.06 µg/mL	0.5 µg/mL	≤0.06 µg/mL	16.1 µM·h	MIC of cefuroxime in presence of BLI [10]: 1 µg/mL

Now from value to compound, other results behind:

AUC [6, 12]	SMILES	IC50 [7]	IC50 [8]	MIC of cefixime in presence of BLI [9]	MIC of cefuroxime in presence of BLI [9]	MIC of faropenem in presence of BLI [9]	MIC of tebipenem in presence of BLI [9]	MIC of cefixime in presence of BLI (E. coli WT (ATCC 25922))	MIC of cefuroxime in presence of BLI (E. coli WT (ATCC 25922))	MIC of faropenem in presence of BLI (E. coli WT (ATCC 25922))	MIC of tebipenem in presence of BLI (E. coli WT (ATCC 25922))	MIC of cefixime in presence of BLI [10]	MIC of faropenem in presence of BLI [10]	MIC of tebipenem in presence of BLI [10]	AUC [6, 11]	also measured
0.29 µM·h	O=C(NC1CCNCC1)[C@@H]1CC[C@@H]2CN1C(=O)N2OS(=O)(=O)O [Relebactam, reference compound]	–	–	–	–	–	–	–	–	–	–	–	–	–	–	–
0.44 µM·h	CC1=C[C@@H]2CN(C(=O)N2OS(=O)(=O)O)[C@@H]1C(N)=O [ETX2514, reference compound]	–	–	–	–	–	–	–	–	–	–	–	–	–	–	–
0.45 µM·h	N#CC1CC[C@@H]2CN1C(=O)N2OS(=O)(=O)O (stereo partly shown) [WCK 4234, reference compound]	–	–	–	–	–	–	–	–	–	–	–	–	–	–	–
